Test results from US20160213635A1, “COMPOSITIONS USEFUL IN THE PREVENTION OR TREATMENT OF SKIN CANCER” (GIULIANI S.P.A., priority 2013, published 2016).

Tests used:
NHKs cells [1] = test: ELISA 8-OHdG determination after UVA irradiation and subsequent treatment with G01; type: cell-based, human; settings: post-treatment 90 μM; UVA 10 J/cm^2; both post-treatment times 6 h and 24 h; vs cells only irradiated
Experimental: The NHKs cells were plated in the specific culture medium and maintained in culture for 24±2 h to allow adhesion to the plate. Then, the plates identified as +UVA and +UVA/G01 post were respectively exposed, in the irradiation medium, to a UVA dose of 10 J/cm^2. The irradiation medium was then replaced with the culture medium containing the compound of the invention G01, in a concentration of 90 μM. Based on preliminary results obtained on a broader time range, post-treatment times of 6 h and 24 h were selected, after which the plates were processed according to the procedure described in the work instruction specific for the DNA extraction. The determination of 8-OHdG, marker of DNA oxidative damage induced by UVA, was performed using a specific ELISA kit following the procedure described in the user manual.

[2] = system: primary cultures of human keratinocytes, NHKs; test: Cell viability (incorporation of NR) after UV irradiation and subsequent treatment with G01; type: cell-based; settings: post-treatment; UVA 10 J/cm^2, UVB 25 mJ/cm^2; particularly 48 h after irradiation; highest concentration tested 90 μM
Experimental: The cells were plated in the specific culture medium and maintained in culture for 24±2 h to allow adhesion to the plate. The cells in the plates identified as +UVA and +UVB were respectively exposed, in the irradiation medium, to doses of UVA of 10 J/cm^2 and UVB of 25 mJ/cm^2, while the control plate (Ctr) was maintained in the dark and at room temperature for a period of time equal to the irradiation time. The irradiation medium was then replaced with the culture medium, containing the compound G01 in concentrations selected based on the cell viability results obtained after treatment with the same compound (see above). The cell viability was measured (incorporation of NR) at a time of 24±2 h and 48±2 h after the irradiation, in the absence and the presence of UVA/UVB irradiation and/or treatment with the compound of the invention G01. The cell viability values for each condition tested were compared with the value obtained from the control and plotted on a graph to highlight any differences between the various experimental conditions.

NHKs cells [3] = test: Flow cytometric (annexin V) assessment of apoptosis induced by UV irradiation and subsequent treatment with G01; type: cell-based, human; settings: post-treatment 90 μM; UVA 25 J/cm^2, UVB 80 mJ/cm^2; 24 h
Experimental: The NHKs cells were plated in the specific culture medium and maintained in culture for 24±2 h to allow adhesion to the plate. Each experimental condition was plated in duplicate. Subsequently, the plates identified as +UVA, +G01/UVA, +UVB, and +G01/UVB were respectively exposed, in the irradiation medium, to doses of UVA of 25 J/cm^2 and UVB of 80 mJ/cm^2, while the control plates (Ctr) and those treated only with the compound under examination (G01) were maintained in the dark and at room temperature for a period of time equal to the irradiation time. The irradiation medium was then replaced with the culture medium containing the compound G01 in a concentration of 90 μM. Based on the preliminary results obtained on a broader time range, a post-treatment time of 24 h was selected, after which the plates were processed according to the procedure given in the user manual of the specific kit for annexin V flow cytometric analysis. The positivity for annexin V in each condition tested (treatment with the compound of the invention under examination and/or UVA/UVBirradiation) was compared with the positivity in the control cells.

NHKs cells [4] = test: Western Blot assessment (non-cleaved caspase 3) of apoptosis induced by UV irradiation and subsequent treatment with G01; type: cell-based, human; settings: post-treatment 90 μM; UVA 25 J/cm^2, UVB 80 mJ/cm^2; 24 h
Experimental: The NHKs cells were plated in the specific culture medium and maintained in culture for 24±2 h to allow adhesion to the plate. Subsequently, the plates identified as +UVA, +G01/UVA, +UVB, and +G01/UVB were respectively exposed, in the irradiation medium, to doses of UVA of 25 J/cm^2 and UVB of 80 mJ/cm^2, while the control plates (Ctr) and those treated only with the compound under examination (G01) were maintained in the dark and at room temperature for a period of time equal to the irradiation time. The irradiation medium was then replaced with the culture medium containing the compound G01, in a concentration of 90 μM. Based on the preliminary results obtained on a broader time range, a post-treatment time of 24 h was selected, after which the plates were processed for Western Blot protein determination. The protein expression of non-cleaved caspase 3 in each condition tested (treatment with the compound G01 under examination and/or UVA/UVB irradiation) was compared with the expression in the control cells.

NHKs cells [5] = test: Western Blot time course of p53, phospho-p53 and GADD45a after UVB irradiation and subsequent treatment with G01; type: cell-based, human; settings: post-treatment 90 μM
Experimental: The NHKs cells were plated in the specific culture medium and maintained in culture for 24±2 h to allow adhesion to the plate. Subsequently, the plates identified as +UVB and +G01/UVB post were exposed, in the irradiation medium, to a UVB dose of 25. mJ/cm^2. The irradiation medium was then replaced with the culture medium containing the compound of the invention G01, in a concentration of 90 μM. Post-treatment times of 1-3-6-24 h were selected, after which the plates were processed for Western Blot protein determination. The protein expression of p53, phospho-p53, and GADD45a after UVB irradiation and post-treatment with the compound of the invention G01 was compared with the expression in the control cells (Ctr).

[6] = system: primary cultures of human keratinocytes, NHKs; test: Cell viability (incorporation of NR) after pre-treatment with G01 and subsequent UV irradiation; type: cell-based; settings: pre-treatment 24±2 h; UVA 10 J/cm^2, UVB 25 mJ/cm^2; particularly 48 h after irradiation; particularly significant at 90 μM
Experimental: The cells were plated in the specific culture medium and maintained in culture for 24±2 h to allow adhesion to the plate. The cells were treated for 24±2 h with the concentrations of the compound G01 under evaluation, selected based on the previous results. Subsequently, the cells in the plates identified as +UVA and +UVB were respectively exposed, in the irradiation medium, to doses of UVA of 10 J/cm^2 and UVB of 25 mJ/cm^2, while the control plate was maintained in the dark and at room temperature for a period of time equal to the irradiation time. The irradiation medium was then replaced with the culture medium. The cell viability was measured (incorporation of NR) 24±2 h and 48±2 h after the irradiation, following examination of the morphology of the cells under a microscope, in the absence and the presence of treatment with G01 and/or UVA/UVB irradiation. The cell viability values for each condition tested were compared with the value obtained from the control and plotted on a graph to highlight any differences between the various experimental conditions.

[7] = UVB 25 mJ/cm^2, shorter times of 1-3-6-24 h

In the case of `C/C=C/C=C/C=C/C(=O)O` [G01, 2,4,6-trans-octatrienoic acid], the “amount of 8-OHdG produced by UVA radiation” value (NHKs cells [1]) is reported as “significant reduction”, the “cell viability after UVA/UVB irradiation” value [2] is reported as “significant protective action” and the “apoptosis (positivity for annexin V) induced by UVA and UVB” value (NHKs cells [3]) is reported as “reduce the apoptosis”. For the same compound, the “caspase 3 activation (protein expression of non-cleaved caspase 3)” value (NHKs cells [4]) was “reduce caspase 3 activation”, the “expression of the markers of DNA damage” value (NHKs cells [5]; 24 h after UVB irradiation 25 mJ/cm^2) was “decrease in the expression” and the “levels of GADD45a” value (NHKs cells [5]; [7]) was “acceleration of the increase”. The “levels of p53” value (NHKs cells [5]; [7]) was “acceleration of the increase”, the “levels of phospho-p53” value (NHKs cells [5]; [7]) was “acceleration of the increase” and the “cell viability after UVA/UVB irradiation” value [6] was “general protective effect of cell viability”.
